Assay results: the NIST ThermoML archive (doi:10.1007/s10765-010-0860-3)
Numbers after ± are expanded uncertainties.

Legend:
[1] = xn = mol fraction of the nth substance listed; details: 101 kPa, Liquid; for viscosity: Capillary tube (Ostwald / Ubbelohde) method; for mass density: Pycnometric method
[2] = 101 kPa, Liquid; for viscosity: Capillary tube (Ostwald / Ubbelohde) method; for mass density: Pycnometric method

| SMILES | viscosity ([2]; 288.15 K) | mass density ([2]; 288.15 K) | viscosity ([2]; 298.15 K) | mass density ([2]; 298.15 K) | viscosity ([2]; 308.15 K) | mass density ([2]; 308.15 K) | other results |
| --- | --- | --- | --- | --- | --- | --- | --- |
| C1COCCO1 [1,4-dioxane] + CC1COC(=O)O1 | – | – | – | – | – | – | viscosity ([1]; 288.15 K, x2 = 0): 1.44 ± 0.012 mPa·s; mass density ([1]; 288.15 K, x2 = 0): 1039.1 ± 0.92 kg/m3; viscosity ([1]; 298.15 K, x2 = 0): 1.185 ± 0.01 mPa·s; mass density ([1]; 298.15 K, x2 = 0): 1027.92 ± 0.92 kg/m3; viscosity ([1]; 308.15 K, x2 = 0): 1.029 ± 0.009 mPa·s; mass density ([1]; 308.15 K, x2 = 0): 1016.55 ± 0.93 kg/m3 |
| CC1COC(=O)O1 (configuration not stated) [4-methyl-1,3-dioxolan-2-one] + CC(=O)CC(C)=O | – | – | – | – | – | – | viscosity ([1]; 288.15 K, x1 = 1): 3.086 ± 0.025 mPa·s; mass density ([1]; 288.15 K, x1 = 1): 1208.67 ± 0.99 kg/m3; viscosity ([1]; 298.15 K, x1 = 1): 2.5 ± 0.021 mPa·s; mass density ([1]; 298.15 K, x1 = 1): 1197.58 ± 0.96 kg/m3; viscosity ([1]; 308.15 K, x1 = 1): 2.073 ± 0.017 mPa·s; mass density ([1]; 308.15 K, x1 = 1): 1187.16 ± 0.95 kg/m3 |
| C1COCCO1 [1,4-dioxane] | 1.44 ± 0.012 mPa·s | 1039.1 ± 0.92 kg/m3 | 1.185 ± 0.01 mPa·s | 1027.92 ± 0.92 kg/m3 | 1.029 ± 0.009 mPa·s | 1016.55 ± 0.93 kg/m3 | – |
| C1CCOC1 [tetrahydrofuran] + CC1COC(=O)O1 | – | – | – | – | – | – | viscosity ([1]; 288.15 K, x2 = 0): 0.508 ± 0.005 mPa·s; mass density ([1]; 288.15 K, x2 = 0): 892.93 ± 0.86 kg/m3; viscosity ([1]; 298.15 K, x2 = 0): 0.462 ± 0.004 mPa·s; mass density ([1]; 298.15 K, x2 = 0): 881.96 ± 0.86 kg/m3; viscosity ([1]; 308.15 K, x2 = 0): 0.426 ± 0.004 mPa·s; mass density ([1]; 308.15 K, x2 = 0): 870.85 ± 0.87 kg/m3 |
| CC1COC(=O)O1 (configuration not stated) [4-methyl-1,3-dioxolan-2-one] | 3.086 ± 0.025 mPa·s | 1208.67 ± 0.99 kg/m3 | 2.5 ± 0.021 mPa·s | 1197.58 ± 0.96 kg/m3 | 2.073 ± 0.017 mPa·s | 1187.16 ± 0.95 kg/m3 | – |
| C1CCOC1 [tetrahydrofuran] | 0.508 ± 0.005 mPa·s | 892.93 ± 0.86 kg/m3 | 0.462 ± 0.004 mPa·s | 881.96 ± 0.86 kg/m3 | 0.426 ± 0.004 mPa·s | 870.85 ± 0.87 kg/m3 | – |
| CC(=O)CC(C)=O [2,4-pentanedione] | 0.741 ± 0.006 mPa·s | 980.34 ± 0.72 kg/m3 | 0.67 ± 0.006 mPa·s | 972.18 ± 0.73 kg/m3 | 0.609 ± 0.005 mPa·s | 963.46 ± 0.76 kg/m3 | – |
